From PubChem BioAssay (NCI) come the findings set out here.

Experiment in all cases: growth of human tumour cells (NCI), 48 h
Test [1] concerns HOP-62 NSCLC.
Test [2] concerns MOLT-4 leukemia.
Test [3] concerns HL-60(TB) leukemia.
In test [4] the test system is T-47D breast.
Test [5] concerns RXF 393 renal.
The subject of test [6] is DU-145 prostate.
For test [7], the system named is SK-OV-3 ovarian.
The subject of test [8] is MALME-3M melanoma.
The subject of test [9] is SR leukemia.
Test [10] concerns MCF7 breast.

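Assay format: 96-well plates, 48-hour exposure. Here, GI50 denotes the concentration required for 50% inhibition of growth. Definition used: TGI = concentration required for complete inhibition of growth.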

In the case of `COCCOC(C)C(/C=N/NC(N)=S)=N/NC(N)=S` (stereo not given), the GI50 is over 100 µM in [1]; 0.0558 µM in [2]; over 100 µM in test [5]; over 100 µM in test [6]; over 100 µM in test [7]. Moreover, the TGI in [1] is over 100 µM; in [2] it was over 100 µM; in test [3], over 58.9 µM; in test [4], over 100 µM; in [5], over 100 µM; in test [6], over 100 µM. In test [7], this compound had a TGI of over 100 µM.
`CC(=O)Nc1ccc(/C=c2\sc3nnc(/C=C/c4ccccc4)n3c2=O)cc1`: the TGI in test [1], in [2], in test [3], in test [5], in test [7] and in test [8] was over 50 µM each time.
On to `Clc1ccc2c(NCCCN3CCN(c4nc(-n5ccnc5)nc5ccccc45)CC3)ccnc2c1`, for which the GI50 was 44.8 µM in [1]; 2.38 µM in test [2]; 2.17 µM in test [3]; over 100 µM in [4]; 1.67 µM in test [5]; over 100 µM in test [6]. Also, the GI50 is over 47.3 µM in [7], 1.91 µM in test [8] and 1.9 µM in test [9]. Further, the TGI was over 100 µM in test [1]; 6.85 µM in test [2]; 5.18 µM in test [3]; over 100 µM in test [4]; 3.34 µM in test [5]; over 100 µM in [6]. Further, the TGI is over 62.8 µM in [7], 3.56 µM in test [8] and 5.7 µM in test [9].
Turning to `COc1ccc(-c2c(N)[n+]([O-])c3cc(C)c(C)cc3[n+]2[O-])cc1OC`, the TGI in test [1], in test [2], in [3], in test [7] and in [8] was over 100 µM each time.
Regarding `CC(NC1CCC[C@H]1O)c1ccccc1` (mixture of isomers), the TGI in test [1], in [2], in [3], in [5], in test [7] and in [8] was over 100 µM throughout.
Turning to `COc1cc(C2C(C(=O)O)=C(C)Oc3cc4c(cc32)OCO4)cc(OC)c1OC` (stereo not given), the TGI in [2] was over 100 µM; in test [3], 50.8 µM; in [5] it was over 100 µM; in test [7], 91.2 µM; in test [8] it was over 100 µM.
Turning to `CN(C)CC1(C)CC/C(=C\c2ccc3c(c2)OCO3)C1=O` (stereo not given), the TGI in [1], in test [2], in [5], in test [8] and in test [9] was over 100 µM each time.
With `CCCCCCCCCCCCCCCCCC(=O)NCCCNCCCNC(=O)CCCCCCCCCCCCCCCCC`, the TGI in test [1], in test [2], in test [3], in test [7] and in test [8] was over 100 µM throughout.
With `Nc1nc(N)c(-c2ccccc2)c(C(=O)Nc2ccc(Cl)c(Cl)c2)n1`, the TGI in test [1], in [2], in [3], in [5] and in test [8] was over 100 µM throughout.
Regarding `COCCN1C2=CCCCC2=Nc2c(N)nc(N)nc21`, the TGI in test [1], in test [2], in test [3], in test [5], in test [7] and in test [8] was over 100 µM each time. Further, the TGI in [9] is over 100 µM.
As to `CC1CC2C3CC(F)C4=CC(=O)C=CC4(C)C3(F)C(O)CC2(C)C1(O)C(=O)CO` (stereo not given), the TGI in [1], in test [2], in test [3], in test [5], in [7] and in [8] was over 100 µM throughout. The compound also displayed a TGI in [9] of over 100 µM.
For `COC(=O)C(C(=O)C(=O)Nc1ccccc1OC)c1csc(-n2nc(-c3ccccc3)cc2-c2ccccc2)n1` (stereo not given), the TGI in [1], in [2], in test [3], in test [5], in test [7] and in test [8] was over 100 µM in each case. Moreover, the TGI in [9] is over 100 µM.
For `CN/N=C(\C)CC(=O)Nc1cccc(Cl)c1C`, the TGI in test [1], in test [2], in test [3], in [5], in test [7] and in test [8] was over 100 µM throughout. For the same compound, the TGI in [9] turned out to be 53.5 µM.
In the case of `COc1cc2c(cc1OC)-c1c(cc(OC)c(OC)c1OC)C2=O`, the TGI in test [1], in [2], in test [3], in test [5], in test [7] and in test [8] was over 100 µM in each case. This compound gave a TGI in test [9] of over 100 µM.
For the compound `CC1=CCC2(C#N)CCC1C2=O` (stereo not given), the TGI in [1], in [2], in test [3], in [7], in test [8] and in test [9] was over 100 µM throughout.
In the case of `C/C=C/C=C/[C@H]1Cc2cc(O)cc(O)c2O1`, the TGI in test [1] was over 100 µM; in test [2], over 100 µM; in test [3], 92.8 µM; in test [5], over 100 µM; in [7] it was over 100 µM; in test [8], over 100 µM. In addition, the TGI in test [9] was over 100 µM.
On to `CSc1s[s+]c(SC)c1[O-]`, for which the TGI in [1] is over 100 µM; in test [2] it was 48.2 µM; in [3], 47.1 µM; in [5] it was 41.4 µM; in [7] it was over 100 µM; in [8], 40.6 µM. This compound yielded a TGI in test [9] of 37 µM.
Take `O=C(O)C1Cc2nc[nH]c2CN1` (stereo not given): the TGI in test [2], in test [3], in test [7], in [8] and in test [9] was over 100 µM throughout.
With `C=C(CO)CC(O)c1ccccc1` (stereo not given), the TGI in [1], in [2], in test [3], in test [5] and in test [7] was over 100 µM each time.
With `O=C1OC(=O)C2C3CCC(O3)C12` (stereo not given), the TGI in test [1], in test [2], in test [3], in test [5], in test [7] and in test [8] was over 100 µM throughout. In test [9], this compound yielded a TGI of over 100 µM.
With `Cc1ccccc1NC(=O)C(=O)Cc1nc2ccccc2s1`, the TGI in [1], in test [2], in [3], in test [5], in [7] and in [8] was over 100 µM in each case. Besides, the TGI in test [9] is over 100 µM.
For the compound `Cc1cccc(NC(=O)CC2C(=O)Nc3ccccc3S2(=O)=O)c1C` (stereo not given), the TGI in test [1] was 52.8 µM; in test [2], over 100 µM; in test [3] it was over 100 µM; in test [5] it was 34.3 µM; in test [7], 37.7 µM; in [8], 45.1 µM. Besides, the TGI in test [9] worked out at 48 µM.
Turning to `Oc1cccc(C2SCc3nc4ccccc4n32)c1` (stereo not given), the TGI in test [2], in test [3], in test [5], in test [7], in [8] and in test [9] was over 100 µM throughout.
Regarding `Cc1ccc(NC2=C(Cl)C(=O)c3nc(C)ccc3C2=O)cc1`, the GI50 in [1] was 0.836 µM; in test [2], 2.52 µM; in test [3], 1.98 µM; in test [4] it was 1.08 µM; in test [5], 1.57 µM; in [6], 1.47 µM. The values for the GI50 in test [7] and in test [8] were 11.9 µM and 1.75 µM, respectively. In addition, the TGI is 2.58 µM in test [1]; over 100 µM in test [2]; 4.96 µM in [3]; 3.3 µM in test [4]; 2.96 µM in test [5]; 2.85 µM in test [6]. The results for the TGI in test [7] and in test [8] were 24.6 µM and 3.23 µM, respectively.
Turning to `O=C1C=C(Br)C(=O)C(Br)=C1`, the TGI in test [1] was over 100 µM; in test [2] it was over 86.2 µM; in [3], 54.9 µM; in test [5] it was over 100 µM; in [7] it was over 100 µM; in test [8] it was over 100 µM. For the same compound, the TGI in test [9] was over 80.6 µM.
On to `Cc1ccc(C(=O)/C=C/c2ccccc2Cl)cc1`, for which the TGI is over 100 µM in test [1]; 56.1 µM in test [2]; 42.8 µM in test [3]; 99.5 µM in test [7]; 53.6 µM in test [8].
`CNC(=O)OCc1nc(S(C)=O)n(C)c1COC(=O)NC` (stereo not given): the TGI in test [1] was over 100 µM; in test [10], over 100 µM; in test [2], over 100 µM; in test [3], over 100 µM; in test [5] it was over 100 µM; in test [7], over 73.3 µM. The TGI in test [8] and in [9] was over 100 µM in each case.
Regarding `C=C(C)C1CC[C@]2(C(=O)O)CCC3(C)[C@H](CCC4[C@@]5(C)CC[C@H](OC6OC(CO)C(O)C6OC6OC(C)C(O)C(O)C6O)[C@@](C)(CO)C5CC[C@]43C)C12` (stereo not given in full), the TGI in test [1], in test [2], in test [3], in test [5] and in test [9] was over 100 µM each time.
Consider `CC(C)OCN1COCN=C1NC#N`, for which the TGI in test [1], in test [2], in [3], in test [5], in test [7] and in test [8] was over 100 µM in each case. For the same compound, the TGI in test [9] is over 100 µM.
As for `O=C(O)/C(O)=C1/C=C(c2ccccc2)c2ccccc21`, the TGI in test [1] is 55.2 µM; in test [2] it was 43.8 µM; in test [3], 45.6 µM; in [5], 35.6 µM; in test [7], over 100 µM; in [8] it was 71.3 µM. In test [9], this compound returned a TGI of 47.1 µM.
Consider `N/C(=N\C(=S)N1CCCCC1)N1CCCCC1`, for which the TGI in [1], in test [2], in test [3], in test [5], in test [7] and in [8] was over 100 µM throughout. Moreover, the TGI in test [9] was over 100 µM.
With `Cc1ccc(NC(=O)SCCC(=O)O)cc1NC(=O)SCCC(=O)O`, the TGI in [1], in [2], in test [3], in test [5] and in test [9] was over 100 µM in each case.
Consider `O=C(C#Cc1c[nH]c(=O)[nH]c1=O)c1ccccc1`, for which the TGI in test [1] worked out at 36.1 µM; in test [2], 7.96 µM; in [3] it was 14.3 µM; in [5], 6.05 µM; in test [7], 62.9 µM; in [8], 15.2 µM.
With `COC(=O)/C(=C/N1CCN(C(=O)c2ccco2)C1=S)C(C)=O`, the GI50 in test [1] was 20.6 µM; in test [2] it was 20.8 µM; in test [3], 7.47 µM; in test [4], 6.02 µM; in [5] it was 4.41 µM; in test [7], 31.3 µM. Moreover, the GI50 in [8] is 5.64 µM. Further, the TGI is 42.8 µM in [1]; over 100 µM in test [2]; 71.5 µM in test [3]; 29.8 µM in test [4]; 9.49 µM in test [5]; 78.2 µM in [7]. In addition, in test [8], the TGI is 50.4 µM.
As to `CCCCCN(CCCCC)C(=O)[C@@H](CCC(=O)OCc1ccccc1)NC(=O)c1cc2ccccc2[nH]1`, the TGI in [1], in [5], in [7] and in test [8] was over 100 µM each time.
